Results as given in patent US12723236B2, “Method for producing cell aggregate” (TOPPAN Holdings Inc., priority 2021, dated 2026).
“Also recorded” adds a separate entry of the source.

Legend:
[1] = Gelation of neutral collagen solution at room temperature; assay type: physicochemical; conditions: pH 7.4, room temperature
Protocol: (§1) 100 μL of each of the following solutions was added to the cell mixture at room temperature, suspended until the cells were no longer visible, and then centrifuged (400 g×2 min) to obtain a viscous component. Here, regardless of the presence of heparin and collagen, it was confirmed in advance that the pH of each solution was approximately around 7.4. • (1) 100 mM Tris-HCl buffer solution • (2) collagen-containing solution (0.2 mg/mL collagen in 100 mM Tris-HCl buffer solution*) • (3) collagen and heparin-containing solution (0.2 mg/mL collagen and 0.5 mg/mL heparin in 100 mM Tris-HCl buffer solution) • *Since collagen quickly gelled in a neutral solution at room temperature, equal amounts of a 0.4 mg/mL collagen in 5 mM acetate buffer solution and a 200 mM Tris-HCl buffer solution prepared in advance were mixed in each of the above solutions and used. Step 1-5
Since collagen quickly gelled in a neutral solution at room temperature, equal amounts of a 0.4 mg/mL collagen in 5 mM acetate buffer solution and a 200 mM Tris-HCl buffer solution prepared in advance were mixed in each of the above solutions and used. […]

PXB cells, SEC and LX2 = experiment: Aggregation behavior of cells treated with heparin/collagen (live-cell confocal observation); assay type: cell-based, Human; conditions: 0.2 mg/mL collagen, 0.5 mg/mL heparin in 100 mM Tris-HCl; 96-well microplate; 2 hours after seeding; FIG. 2
Protocol: PXB cells, SEC and LX2 were used as cells.
The collected cells were mixed at the following ratios and cell amounts to obtain a cell mixture. • total amount of cells: 300,000 cells • cell proportions in tissue: • PXB cells: 65%·SEC: 25%·LX2: 10% Step 1-4
as §1
After the supernatant was removed from the solution containing the viscous component, HCM was added so that the final volume of the solution was a solution amount of 100 μL to obtain a cell suspension. […]

MRP2 = MRP2 immunostaining and image analysis of hepatotoxicity model formed in fibrin gel; assay type: cell-based, Human; conditions: 3 days of culture; for expression of MRP2 (fluorescence): 0.2 mg/mL collagen and/or 0.5 mg/mL heparin
Protocol: Regarding hepatotoxicity models treated with each solution, it was evaluated whether there was a difference in the state of adhesion between hepatocytes.
A cell mixture with the following proportions and cell amounts was obtained in the same procedures as Steps 1-1 to 1-3 in Test Example 1. • total amount of cells: 300,000 cells • cell proportions in tissue: • PXB cell: 65%·SEC: 25%·LX2: 10% Step 2-2
After the supernatant was removed from the solution containing the viscous component obtained in Step 2-2, a 20 U/mL thrombin solution (solvent: HCM) was added so that the final volume of the solution was a solution amount of “the number of wells to be seeded”×2 μL to obtain a cell suspension.
2 μL of a 10 mg/mL fibrinogen solution was seeded on a 48-well microplate to form droplets and each cell suspension obtained in Step 2-3 was then added into the droplets, and then left in an incubator for 1 hour to form a fibrin gel.
0.5 mL of HCM (containing Endothelial Cell Growth Supplement) was added to each well in which the fibrin gel was formed.
After HCM was added, culture was continued for 3 days in each well in which the fibrin gel was formed.
After 3 days of culture, the 48-well microplate was removed from the incubator, the medium was removed, washing with PBS was performed, and 300 μL of a 4% paraformaldehyde·phosphate buffer solution (hereinafter referred to as PFA) was then added to each well to fix a hepatotoxicity model (3D model). Then, the PFA was washed thoroughly and removed.
100 μL of a 0.2 (v/v) % TRITON/1 (w/v) % BSA PBS solution (hereinafter referred to as a BSA solution) was added to each well, and left at room temperature for 2 hours.
Anti-MRP2 antibodies were diluted 100-fold with a BSA solution to obtain a primary antibody solution. 100 μL of the primary antibody solution was added to each well and left at 4° C. for 24 hours. Then, the primary antibody solution was washed thoroughly and removed.
Secondary antibodies were diluted 200-fold with a BSA solution to obtain a secondary antibody solution. 100 μL of the secondary antibody solution was added to each well, shielded from light and left at room temperature for 1 hour. Then, the secondary antibody solution was washed thoroughly and removed, and 100 μL of PBS was added to each well.
Images were captured under a confocal microscope. […]
The intensities of the captured images were summed to obtain a fluorescence observation image of each hepatotoxicity model (3D model). […]

bile canaliculi = experiment: Bile acid assay (CLF) confirming formation of bile canaliculi in hepatotoxicity model; assay type: cell-based, Human; conditions: collagen 0.3 mg/mL, 6 days of culture
Protocol: A hepatotoxicity model was produced according to the same method as in the method described in Test Examples 1 and 2. However, the collagen concentration was 0.3 mg/mL, and the heparin concentration was 0.05 mg/mL, 0.15 mg/mL, 0.5 mg/mL, or 5.0 mg/mL (all final concentrations).
After 6 days of culture, the medium was replaced with 300 μL of a medium containing 5 μM CLF (FITC-labeled bile acid CORNING #451041) on which the following operation was performed (this assay was performed while cells were alive). After being left in the incubator for 20 min, the tissue was washed with PBS 5 times. The medium was replaced, and observation was performed under a fluorescence microscope.
FIG. 6, FIG. 7, FIG. 8, and FIG. 9 show the results of fluorescence observation after a medium containing CLF was incubated for the hepatotoxicity models produced with different heparin concentrations. […] In each drawing, the scale bar indicates 500 μm. In normal live tissue in which bile canaliculi were favorably formed, it was thought that, since hepatocytes excreted bile acids taken up from the outside of the live tissue into the bile canaliculi, the intensity of fluorescence derived from FITC retained in the cells was low after the CLF treatment.

collagen
gelation of solution at room temperature [1]: quickly gelled at room temperature
aggregation of cells (PXB cells, SEC and LX2): aggregation of cells was significantly promoted
expression of MRP2 (fluorescence) (MRP2; versus control, FIG. 3): expression of MRP2 tended to decrease significantly
aggregation of cells in hepatotoxicity model (MRP2; 0.2 mg/mL collagen, FIG. 3): cells tended to aggregate excessively

heparin (hydrochloride)
gelation of solution at room temperature [1]: did not gel at room temperature for a long time
expression of MRP2 (fluorescence) (MRP2; versus control, FIG. 3): fluorescence was enhanced as a whole compared to control conditions
expression intensity percentage of MRP2 (expression area percentage per area, image analysis) (MRP2; versus control, FIG. 5): higher expression intensity percentage of MRP2 than the control
excretion of CLF taken into hepatocytes into the bile canaliculi (bile canaliculi; heparin 0.15, 0.5 or 5.0 mg/mL, 5 μM CLF 20 min, FIG. 7-9, (hydrochloride)): CLF taken into hepatocytes was more efficiently excreted into the bile canaliculi; also recorded: CLF taken into hepatocytes was easily excreted into the bile canaliculi
intensity of fluorescence derived from FITC retained in the cells with increasing heparin concentration (bile canaliculi; heparin concentration increased, 5 μM CLF): the intensity of fluorescence derived from FITC retained in the cells decreased
